This passage reports EC50 results from PubChem BioAssay AID2252 (Southern Research Specialized Biocontainment Screening …, 2010).

pEC50: −log10 of the molar value. “And” between values parts separate entries of the source, which are not always exact repeats. Equal entries are not always repeated.

The test has as its system THP-1 viability, CellTiter-Glo luminescence, 72 h. As to the kind of experiment: PubChem AID 2252.
On to `S=C(Nc1ccc(Cl)c(Cl)c1)NC1CCN(Cc2ccccc2)CC1`, for which the pEC50 is 4.97.

Take `c1ccc2c(c1)OC(CCCN1CCCCC1)c1ccccc1S2` (stereo not drawn): the pEC50 is 4.66.

In the case of `CCC(C)(c1ccc(C(=O)OC)s1)c1ccc(C(=O)OC)s1`, the pEC50 is 4.30.

With `COc1ccc(CNCCc2cccc(F)c2)c2ccccc12`, the pEC50 is 4.89.

As for `CCOC(=O)C1=C(c2ccccc2)NC(N)=NC1c1ccc(OCc2ccc(C(=O)OC)cc2)cc1` (stereo not drawn), the negative logarithm of the EC50 (pEC50) was 5.12.

For the compound `O=C(Nc1nnc(-c2ccco2)o1)c1cccc(Cl)c1`, the negative logarithm of the EC50 (pEC50) was 4.68.

Turning to `O=C1C=C(Nc2ccccc2O)c2ccccc2C1=O`, the negative logarithm of the EC50 (pEC50) was 4.97.

In the case of `Clc1ccc(CONc2ncnc3nonc23)c(Cl)c1`, the pEC50 was 4.32.

Turning to `Cc1nonc1C(=O)N/N=C/c1ccc(O)cc1O`, the pEC50 was 5.09.

As for `COc1ccc(Cc2nnc(N/N=C/c3ccc(O)cc3)[nH]c2=O)cc1OC`, the pEC50 is 6.24.

Regarding `O=C(N/N=C/c1cc(Cl)cc(Cl)c1O)c1ccncc1`, the negative-log EC50 (pEC50) was 5.27.

Consider `O=C(N/N=C/c1ccc([N+](=O)[O-])s1)c1cccnc1`, for which the negative logarithm of the EC50 (pEC50) is 4.83.

For `CCCCCCCCn1ccc(=N)cc1`, the pEC50 was 5.26.

As to `O=C(N/N=C/c1ccccc1O)C1SCCCS1`, the pEC50 is 4.58.

Regarding `CC(Oc1ccc(Br)cc1)c1nc2c3ccccc3nc(=S)n2[nH]1` (stereo not drawn), the pEC50 was 4.75.

Take `O=C(Nc1ccc(-c2nc3ccccc3[nH]2)cc1)c1ccco1`: the negative-log EC50 (pEC50) is 4.98.

Take `CC(C)[C@H](NC(=O)c1ccccc1Cl)C(=O)Nc1nc(-c2ccccn2)cs1`: the negative-log EC50 (pEC50) was 5.21.

With `Nc1nonc1-n1nnc(C(=O)N/N=C/c2ccccc2O)c1CN1CCCC1`, the pEC50 is 5.05.

Take `CN(C)CCCN1c2ccccc2Sc2ccc(Cl)cc21`: the negative-log EC50 (pEC50) is 5.25 and 4.91.

On to `Cc1ccc(-c2csc(NC(=O)C[n+]3cc(-c4ccccc4)n4c3CCC4)n2)cc1`, for which the pEC50 is 5.07.

As to `Cc1ccc(C(c2cc(Cl)c3cccnc3c2O)N2CCN(C)CC2)cc1` (stereo not drawn), the negative logarithm of the EC50 (pEC50) was 5.31.

Turning to `O=C(Nc1ccc(Cc2ccncc2)cc1)c1ccc([N+](=O)[O-])o1`, the pEC50 is 5.40.

On to `N=C1c2ccccc2CN1c1ncccn1`, for which the pEC50 was above 7.00.

For the compound `COc1cc([N+](=O)[O-])cc(/C=N/NC(=O)C(O)(c2ccccc2)c2ccccc2)c1O`, the pEC50 was 4.60.

As to `CN(C)CCCN1c2ccccc2Sc2ccccc21`, the pEC50 is 4.49.

For the compound `O=C(C[n+]1cc(Br)cc2ccccc21)c1ccc(F)cc1`, the negative-log EC50 (pEC50) was above 7.00.

Turning to `CCOC(=O)N1CCN(Cc2cc(Cl)c3cccnc3c2O)CC1`, the negative-log EC50 (pEC50) was 5.51.

On to `Cc1ccc2c(c1)c1c(n2CC(O)CNC2CCCCC2)CCCC1` (stereo not drawn), for which the pEC50 was 5.11.

With `O=C(N/N=C/c1cc([N+](=O)[O-])ccc1O)C1CC1`, the pEC50 was 4.56.

Turning to `c1ccc(Sc2cccc3ccccc23)c(CNC2=NCCN2)c1`, the negative logarithm of the EC50 (pEC50) is 5.23.

In the case of `Cc1cc(C)c2sc(N(CCCN(C)C)C(=O)COc3ccc(Cl)cc3)nc2c1`, the negative-log EC50 (pEC50) was 4.75.

On to `O=C(Nc1nnc(-c2cccs2)o1)c1cccc(Oc2ccccc2)c1`, for which the negative-log EC50 (pEC50) was 4.73.

For the compound `Cc1ccc2c(c1)N/C(=C(\C=C(/Cl)[N+](=O)[O-])[N+](=O)[O-])N2`, the pEC50 was 4.57.

Turning to `CN1CCC(=C2c3ccccc3C=Cc3ccccc32)CC1`, the pEC50 was 4.38.

Consider `O=C(N/N=C/c1ccc([N+](=O)[O-])o1)C(O)c1ccccc1` (stereo not drawn), for which the negative logarithm of the EC50 (pEC50) was 4.75.

For the compound `Cc1ccc(-c2csc(N=C(N)N)n2)c(C)c1`, the pEC50 was 4.57.

As for `Cc1cc(C)c2c(N)c3ccccc3nc2n1`, the negative logarithm of the EC50 (pEC50) was 4.91.

As for `O=c1c2ccccc2nc(COc2ccccc2)n1/N=C/c1ccc(O)cc1O`, the pEC50 was 5.84.

Consider `C[C@@H](NC(=O)/C(C#N)=C/c1ccc(O)c(O)c1)c1ccccc1`, for which the pEC50 was 4.82.

In the case of `O=C(CN1C2=NCCCN2c2ccccc21)c1ccc([N+](=O)[O-])cc1`, the negative-log EC50 (pEC50) was 4.49.

For the compound `O=C(N/N=C/c1ccc([N+](=O)[O-])s1)C(O)c1ccccc1` (stereo not drawn), the negative-log EC50 (pEC50) is 4.89.

On to `Cc1c(C(=O)Nc2ccncc2)sc2nc(-c3ccc(F)cc3)cn12`, for which the pEC50 is 4.71.

Consider `CCOc1ccc(N2C(=O)CN(O)C=C3N=c4ccccc4=C32)cc1`, for which the pEC50 was 4.41.

In the case of `Cc1cc(/C=C\c2ccc3cc(N(C)C)ccc3[n+]2C)c(C)n1-c1ccccc1`, the negative-log EC50 (pEC50) is 5.31.

Take `O=C(CCN1CCN(C(=O)c2ccccc2)CC1)c1ccc(Br)cc1`: the pEC50 is 4.39.

As to `Cc1ccc2cc(CN(CCN(C)C)C(=O)Nc3ccc(Cl)cc3)c(=O)[nH]c2c1`, the negative logarithm of the EC50 (pEC50) is 4.72.

Take `Clc1ccc(OCCCNCc2ccccc2)c(Br)c1`: the negative-log EC50 (pEC50) is 4.86.

For the compound `c1cc2c(cc1C1CCCCC1)c1c3n2CCN=C3CCC1`, the negative-log EC50 (pEC50) was 4.92.

Regarding `OC(c1cc(C(F)(F)F)nc2c(C(F)(F)F)cccc12)C1CCCCN1` (stereo not drawn), the negative-log EC50 (pEC50) is 5.12.

In the case of `CN(C)CCCN1c2ccccc2Sc2ccc(C(F)(F)F)cc21`, the negative-log EC50 (pEC50) was 4.83.

Turning to `CCN1/C(=C/c2cc[n+](C)cc2)C=Cc2cc(C)ccc21`, the pEC50 was 5.17.

In the case of `CC1(C)N=C(N)N=C(N)N1c1ccc(Oc2ccc(Cl)cc2)c(Cl)c1`, the pEC50 was 5.61.

For `CC(C)(C)Nc1nc(-c2ccccn2)nc2ccccc12`, the negative logarithm of the EC50 (pEC50) was 5.46.

On to `CCCCCc1ccc(OCCCC[n+]2ccccc2)c(CCCCC)c1`, for which the negative-log EC50 (pEC50) is 5.83.

Take `CCc1ccc(NC(=O)C[n+]2cc(-c3ccc(C)cc3)n3c2CCC3)cc1`: the pEC50 was 5.24.

Take `CCC(=O)c1ccc(OCC(O)CNCCc2ccc(Cl)cc2)cc1` (stereo not drawn): the negative logarithm of the EC50 (pEC50) is 4.54.

Turning to `Cn1c(=O)c2c(nc(Br)n2CCSc2nc3ccccc3o2)n(C)c1=O`, the negative logarithm of the EC50 (pEC50) is above 7.00.

As to `CCN1CCN(CCNC(=O)c2ccc(/C=C3/Sc4ccccc4N(Cc4cccc(C)c4)C3=O)cc2)CC1`, the pEC50 is 5.09.

Consider `C1=C(CCNc2ncnc3c2[nH]c2ccccc23)CCCC1`, for which the negative logarithm of the EC50 (pEC50) is 5.26.

With `Cc1cc(OCCCCCNCCO)cc(C)c1Cl`, the negative-log EC50 (pEC50) was 4.67.

With `CCCCn1c(NCc2ccccc2NS(=O)(=O)c2ccc(C)cc2)nc2ccccc21`, the negative logarithm of the EC50 (pEC50) is 4.61.

In the case of `CN1CCN(C2=Cc3ccccc3Sc3cc(F)ccc32)CC1`, the negative logarithm of the EC50 (pEC50) was 5.09.

Take `Oc1c(Cl)cc(CN2CCCCC2)c2cccnc12`: the pEC50 was 6.15.

Turning to `CN(C)CC/C=C1\c2ccc(F)cc2Sc2cc(F)c(Cl)cc21`, the pEC50 was 4.95.

For `CS(=O)(=O)c1ccc2nc(NC(=O)c3ccc(Cl)nc3)sc2c1`, the pEC50 is 4.34.

On to `COc1cc([N+](=O)[O-])cc(/C=N/NC(=O)CSc2ccccn2)c1O`, for which the pEC50 is 4.46.

On to `OC(CNCCc1ccc(Cl)cc1)COc1cc(Cl)ccc1Cl` (stereo not drawn), for which the pEC50 is 4.53.

With `Oc1c(I)cc(Cl)c2cccnc12`, the pEC50 was 4.83.

As for `Clc1ccc2c(c1)C(N1CCNCC1)Cc1ccccc1S2` (stereo not drawn), the pEC50 is 5.13.

As for `CCCCOc1ccc(CSC(=N)N)cc1Cl`, the negative logarithm of the EC50 (pEC50) was 4.96.

For the compound `CCN(CC)CCn1c(=N)n(CC(O)COc2cccc(C)c2)c2ccccc21` (stereo not drawn), the negative logarithm of the EC50 (pEC50) was 4.79.

On to `COc1ccc(OCc2n(CC(=O)OC3CC(C)CCC3C(C)C)c3ccccc3[n+]2C)cc1` (stereo not drawn), for which the negative logarithm of the EC50 (pEC50) is 5.79.

With `COc1cc(Br)cc(/C=N/c2ncn[nH]2)c1O`, the pEC50 was 4.30.

In the case of `Nc1nc2ccccc2n1Cc1ccc(Cl)c(Cl)c1`, the pEC50 is 4.50.

`Oc1cc(Cl)ccc1Oc1ccc(Cl)cc1Cl`: the pEC50 was 4.54.

Consider `Cn1c(-c2ccc(Cl)cc2)cnc1N`, for which the pEC50 is 4.47.

Turning to `O=C(Cn1nc(CNc2ccc(Br)cc2)[n+]2c1CCCCC2)c1ccc([N+](=O)[O-])cc1`, the negative logarithm of the EC50 (pEC50) is 4.56.

Consider `S=C(NCc1ccc(Cl)cc1)Nc1ccncc1`, for which the pEC50 is 4.40.

Turning to `O=C(Cn1cc[n+](CC(=O)c2ccc(Cl)cc2Cl)c1)c1ccc(Cl)cc1Cl`, the negative-log EC50 (pEC50) was 4.79.

Turning to `C#CCOCCOCCOCCNc1nc(N2CCN(C(=O)CCCCCCCCCCNC(=O)[C@H](CCCCN)n3cc(CCO)nn3)CC2)nc(N2CCN(C(=O)CCCCCCCCCCNC(=O)[C@H](CCCCN)n3cc(C[C@@H](C)CC)nn3)CC2)n1`, the pEC50 is 4.89.

Consider `CCN(CCNCC(O)COc1ccccc1C(C)C)c1cccc(C)c1` (stereo not drawn), for which the pEC50 was 4.96.

For the compound `c1ccc(CN2CCN(c3ncnc4c3[nH]c3ccccc34)CC2)cc1`, the pEC50 was 4.70.

With `CC(Nc1nc(N2CCCCC2)nc2ccccc12)c1ccccc1` (stereo not drawn), the negative logarithm of the EC50 (pEC50) is 5.15.

For the compound `CN(O)/C=c1/ccc2c(n1)C(=O)C=CC=2`, the pEC50 is 4.59.

For `CCCCC(CC)CN=C(N)NC(N)=NCCCCCCN=C(N)NC(N)=NCC(CC)CCCC` (stereo not drawn), the pEC50 was 6.08.

On to `O=c1[nH]c(-c2ccccn2)nc(C(F)(F)F)c1Br`, for which the pEC50 was 4.94.

In the case of `O=c1c2ccccc2nc(N/N=C/c2c(O)ccc3ccccc23)n1O`, the pEC50 is 6.00.

As for `COc1ccc2nc(N(CCN(C)C)C(=O)/C=C/c3cccs3)sc2c1`, the pEC50 was 4.79.

Consider `COc1ccc(C2NCCc3c2[nH]c2ccccc32)cc1COc1ccc(F)cc1` (stereo not drawn), for which the pEC50 was 5.16.

Regarding `Oc1cccc(Nc2nc(NCC3CCCO3)c3ccccc3n2)c1` (stereo not drawn), the pEC50 is 5.87.

For the compound `Cc1ccc(O)c(Nc2c3ccccc3nc3ccccc23)c1`, the negative-log EC50 (pEC50) was 4.85.

For the compound `COc1ccc2sc(N(CCCN(C)C)C(=O)c3ccc(S(=O)(=O)N4CCc5ccccc5C4)cc3)nc2c1`, the negative logarithm of the EC50 (pEC50) was 5.35.

Turning to `COc1ccc(N2CC(C(=O)N/N=C/c3cc([N+](=O)[O-])ccc3O)CC2=O)cc1` (stereo not drawn), the negative logarithm of the EC50 (pEC50) is 4.75.

Consider `O=C(O)c1ccc(NC2=C(Cl)C(=O)c3ccccc3C2=O)cc1`, for which the negative logarithm of the EC50 (pEC50) was 4.94.

As to `O=C(/C=C/c1ccccc1)c1cc(Br)ccc(=O)c1O`, the negative logarithm of the EC50 (pEC50) was 4.98.

On to `CCCCOc1ccc(C(=O)NNC(=S)NC(=O)CC)cc1`, for which the pEC50 is 5.48.

Regarding `CC(C)(C)c1ccc(OCCCCCCN2CCNCC2)cc1`, the pEC50 is 4.86.

As to `O=C(CN1CC(c2ccccc2)CC1=O)N/N=C/c1cc(Br)ccc1O` (stereo not drawn), the pEC50 was 5.41.

For `COc1ccc(/C=N/NC(=O)c2ccc3c(c2)OCO3)cc1`, the pEC50 was 4.31.

`CC(=O)NC(c1ccc2ccccc2c1)c1ccc2cccnc2c1O` (stereo not drawn): the pEC50 is 6.44.

For `O=C1C(Cl)=C(NCc2cccnc2)C(=O)c2ccccc21`, the pEC50 is 4.90.

Regarding `Cc1nc2ccccc2c(N)c1C(=O)/C=C/c1ccccc1`, the negative-log EC50 (pEC50) was 5.51.

Regarding `NC1=NC2=C(CCCC2)C2(CCCCC2)S1`, the negative logarithm of the EC50 (pEC50) was 4.43.

Broadly, the pEC50 is the negative decadic logarithm of the EC50, by convention in mol/L.
